One block for each molecule: values may come before it.
Key:
[1] = system: T cells (CD4+ and CD8+ subsets); experiment: Vardenafil dose response of CD40L surface expression in T cells, CD4+ and CD8+ subsets; assay type: cell-based; parameters: key to SR: ratio of CD40L expression with vardenafil to expression without it; settings: OT-001892 transduced T cells
Protocol: T cells were transduced with 10 μL of lentivirus corresponding to OT-001892. 4 days after transduction, cells were treated with increasing concentrations of ligand (Vardenafil) or vehicle control for 24 hours. Surface expression of CD40L in T cells as well as the CD4+ and CD8+ subsets was analyzed by FACS. The stabilization ratio (SR) may be defined as the ratio of expression, CD40L in response to vardenafil to the expression of CD40L in the absence of vardenafil.

[2] = system: T cells; experiment: Dose response of TMP, Bazedoxifene or Raloxifene, % CD40L positive T cells; assay type: cell-based; settings: T cells expressing OT-001666
Protocol: T cells were transduced with OT-001662 or OT-001666. On day 4, cells were treated with increasing doses of TMP for T cells expressing OT-001662. Cells expressing OT-001666 were treated either with increasing concentrations of Bazedoxifene or Raloxifene. The data are shown in Table 30 as the percentage of CD40L positive T cells.

[3] = target: CD40 (UniProt P25942); experiment: cell-based or functional assay
Sequence of CD40 (P25942 21-277 limits assumed): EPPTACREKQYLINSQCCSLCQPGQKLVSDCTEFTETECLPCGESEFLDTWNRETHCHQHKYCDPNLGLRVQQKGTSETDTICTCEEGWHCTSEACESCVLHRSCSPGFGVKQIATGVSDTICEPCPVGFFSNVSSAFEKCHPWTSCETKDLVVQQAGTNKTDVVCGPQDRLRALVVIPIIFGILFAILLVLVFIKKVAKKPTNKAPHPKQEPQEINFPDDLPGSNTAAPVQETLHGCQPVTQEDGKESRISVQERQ

[4] = system: T cells (CD4 and CD8 positive); experiment: Bazedoxifene dose response, CD40L MFI in CD4 and CD8 positive T cells (day 4, freeze/thaw, restimulation); assay type: cell-based; settings: T cells, Bazedoxifene dose response
Protocol: Dose response with Bazedoxifene in T cells were conducted for OT-001966, OT-001967, OT-001666. Expression of CD40L was measured at (a) day 4 after transduction, (b) after freezing and thawing the cells or (c) after freezing and thawing the cells followed by restimulation with CD3/CD28 beads. The CD40L MFI (median fluorescence intensity) within CD4 and CD8 positive subpopulations is shown in Table 34 and Table 35 respectively.

[5] = system: T cells (CD4 and CD8); experiment: Cleavage resistant CD40L expression and TMP regulation in T cells; assay type: cell-based; settings: T cells, 10 μM TMP 24 hours, CD4 and CD8 populations
Protocol: T cells were transduced with OT-001668 and on day 4, the percentage of CD40L expressing T cells (within the both CD4 and CD8) subpopulations was calculated.
T cells were transduced with ecDHFR regulated construct OT-001671 that include a CD40L protein that was resistant to cleavage. On day 4 cells were treated with 10 μM TMP for 24 hours. […] In an independent experiment, T cells transduced with varying volumes of virus corresponding to OT-001671 were treated with increasing doses of TMP for 24 hours. In Table 41, 0.5 μL, 2 μL, and 10 μL indicate the different volumes of virus that were used.

[6] = All Cells, Vardenafil 0.0001 μM
[7] = CD4+ Cells, Vardenafil 0.0001 μM
[8] = CD4+ Cells, Vardenafil 0.001 μM
[9] = CD8+ Cells, Vardenafil 0.0001 μM
[10] = CD8+ Cells, Vardenafil 0.001 μM

Molecule: CCCc1nc(C)c2c(=O)[nH]c(-c3cc(S(=O)(=O)N4CCN(CC)CC4)ccc3OCC)nn12 [Vardenafil]
MFI [1, 6]: 274
SR [1, 6]: 1.31
MFI ([1]; All Cells, Vardenafil 0.001 μM): 260
SR ([1]; All Cells, Vardenafil 0.001 μM): 1.24
MFI ([1]; All Cells, Vardenafil 0.01 μM): 265
SR ([1]; All Cells, Vardenafil 0.01 μM): 1.27
MFI ([1]; All Cells, Vardenafil 0.1 μM): 311
SR ([1]; All Cells, Vardenafil 0.1 μM): 1.49
MFI ([1]; All Cells, Vardenafil 1 μM): 405
SR ([1]; All Cells, Vardenafil 1 μM): 1.94
MFI ([1]; All Cells, Vardenafil 10 μM): 747
SR ([1]; All Cells, Vardenafil 10 μM): 3.57
MFI ([1]; All Cells, Vardenafil 100 μM): 1168
SR ([1]; All Cells, Vardenafil 100 μM): 5.59
MFI [1, 7]: 313
SR [1, 7]: 1.38
MFI [1, 8]: 291
SR [1, 8]: 1.28
MFI ([1]; CD4+ Cells, Vardenafil 0.01 μM): 304
SR ([1]; CD4+ Cells, Vardenafil 0.01 μM): 1.34
MFI ([1]; CD4+ Cells, Vardenafil 0.1 μM): 359
SR ([1]; CD4+ Cells, Vardenafil 0.1 μM): 1.58
MFI ([1]; CD4+ Cells, Vardenafil 1 μM): 482
SR ([1]; CD4+ Cells, Vardenafil 1 μM): 2.12
MFI ([1]; CD4+ Cells, Vardenafil 10 μM): 930
SR ([1]; CD4+ Cells, Vardenafil 10 μM): 4.10
MFI ([1]; CD4+ Cells, Vardenafil 100 μM): 1367
SR ([1]; CD4+ Cells, Vardenafil 100 μM): 6.02
MFI [1, 9]: 166
SR [1, 9]: 1.15
MFI [1, 10]: 166
SR [1, 10]: 1.15
MFI ([1]; CD8+ Cells, Vardenafil 0.01 μM): 162
SR ([1]; CD8+ Cells, Vardenafil 0.01 μM): 1.13
MFI ([1]; CD8+ Cells, Vardenafil 0.1 μM): 171
SR ([1]; CD8+ Cells, Vardenafil 0.1 μM): 1.19
MFI ([1]; CD8+ Cells, Vardenafil 1 μM): 186
SR ([1]; CD8+ Cells, Vardenafil 1 μM): 1.29
MFI ([1]; CD8+ Cells, Vardenafil 10 μM): 340
SR ([1]; CD8+ Cells, Vardenafil 10 μM): 2.36
MFI ([1]; CD8+ Cells, Vardenafil 100 μM): 620
SR ([1]; CD8+ Cells, Vardenafil 100 μM): 4.31

Molecule: Cc1c(-c2ccc(O)cc2)n(Cc2ccc(OCCN3CCCCCC3)cc2)c2ccc(O)cc12 [Bazidoxefene]
Percent of cells expressing CD40L ([2]; Dose 0.0001 μM): 4.88%
Percent of cells expressing CD40L ([2]; Dose 0.001 μM): 5.17%
Percent of cells expressing CD40L ([2]; Dose 0.01 μM): 5.42%
Percent of cells expressing CD40L ([2]; Dose 0.1 μM): 7.67%
Percent of cells expressing CD40L ([2]; Dose 1 μM): 13.5%

Molecule: O=C(c1ccc(OCCN2CCCCC2)cc1)c1c(-c2ccc(O)cc2)sc2cc(O)ccc12 [Raloxifene]
Percent of cells expressing CD40L ([2]; Dose 0.0001 μM): 4.67%
Percent of cells expressing CD40L ([2]; Dose 0.001 μM): 5.01%
Percent of cells expressing CD40L ([2]; Dose 0.01 μM): 5%
Percent of cells expressing CD40L ([2]; Dose 0.1 μM): 5.18%
Percent of cells expressing CD40L ([2]; Dose 1 μM): 7.1%

IFNg (pg/ml), 2-day co-culture of transduced T cells with mDC, DMSO (DRD not stabilised) [3]: 3790 pg/mL
IFNg (pg/ml), 2-day co-culture of transduced T cells with mDC, TMP (0.1 µM) [3]: 7430 pg/mL
IFNg (pg/ml), 2-day co-culture of transduced T cells with mDC, TMP (0.5 µM) [3]: 3590 pg/mL
IFNg (pg/ml), 2-day co-culture of transduced T cells with mDC, TMP (2 µM) [3]: 16400 pg/mL
IFNg (pg/ml), 2-day co-culture of transduced T cells with mDC, TMP (10 µM) [3]: 13500 pg/mL
IL12 (pg/ml), 2-day co-culture of transduced T cells with mDC, DMSO (DRD not stabilised) [3]: 0.254 pg/mL
IL12 (pg/ml), 2-day co-culture of transduced T cells with mDC, TMP (0.1 µM) [3]: 0.0705 pg/mL
IL12 (pg/ml), 2-day co-culture of transduced T cells with mDC, TMP (2 µM) [3]: 19.4 pg/mL
IL12 (pg/ml), 2-day co-culture of transduced T cells with mDC, TMP (10 µM) [3]: 59.3 pg/mL
SEAP reporter of HEK-Blue CD40 cells co-cultured 24 hours with transduced Jurkat cells plus 50 µM TMP, given as Soluble CD40L (pg/ml) against a recombinant soluble CD40L standard [3]: 8660 pg/mL
TNFa (pg/ml), 2-day co-culture of transduced T cells with mDC, DMSO (DRD not stabilised) [3]: 82.3 pg/mL
TNFa (pg/ml), 2-day co-culture of transduced T cells with mDC, TMP (0.1 µM) [3]: 131 pg/mL
TNFa (pg/ml), 2-day co-culture of transduced T cells with mDC, TMP (0.5 µM) [3]: 83.9 pg/mL
TNFa (pg/ml), 2-day co-culture of transduced T cells with mDC, TMP (2 µM) [3]: 249 pg/mL
TNFa (pg/ml), 2-day co-culture of transduced T cells with mDC, TMP (10 µM) [3]: 251 pg/mL
Molecule: OT-001662 (Met; Linker (SG); ecDHFR (M1del, R12Y, Y100I); Histidine residue; CD40L; stop) (ligand)

cell health [4]: affected cell health at highest dose
Molecule: Cc1c(-c2ccc(O)cc2)n(Cc2ccc(OCCN3CCCCCC3)cc2)c2ccc(O)cc12 [Bazedoxifene, reference compound]

B1: OT-001671: ecDHFR regulated construct that includes a CD40L protein resistant to cleavage (protein)
chain: MSGISLIAALAVDYVIGMENAMPWNLPADLAWFKRNTLNKPVIMGRHTWESIGRPLPGRKNIILSSQPGTDDRVTWVKSVDEAIAACGDVPEIMVIGGGRVIEQFLPKAQKLYLTHIDAEVEGDTHFPDYEPDDWESVFSEFHDADAQNSHSYCFEILERRHMIETYNQTSPRSAATGLPISMKIFMYLLTVFLITQMIGSALFAVYLHRRLDKIEDERNLHEDFVFMKTIQRCNTGERSLSLLNCEEIKSQFEGFVKDIMLNKEETKKENDQNPQIAAHVISEASSKTTSVLQWAEKGYYTMSNNLVTLENGKQLTVKRQGLYYIYAQVTFCSNREASSQAPFIASLCLKSPGRFERILLRAANTHSSAKPCGQQSIHLGGVFELQPGASVFVNVTDPSQVSHGTGFTSFGLLKL
TMP-mediated regulation of CD40L expression [5]: TMP-mediated Regulation of CD40L expression was observed
